Source: US12077503B2, “Substituted cyclic amides and their use as herbicides” (FMC CORPORATION, priority 2015, dated 2024)

Key:
Assay type in all cases: in vivo
[1] = system: ryegrass, Italian (Italian ryegrass, Lolium multiflorum); assay: Test A preemergence; conditions: Lolium multiflorum, pre-emergence, 240 h, 0 to 100 scale where 0 is no effect and 100 is complete control, read-out: Ryegrass, Italian plant response rating
Procedure, shortened: (§1)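 Compounds were formulated in a non-phytotoxic solvent mixture with surfactant and applied as a preemergence directed soil spray after seeding, or sprayed postemergence over plants 2 to 10 cm tall at the one- to two-leaf stage. Evaluation after about 10 d compared treated with untreated controls, using a scale from 0 (no effect) to 100 (complete control).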

[2] = system: pigweed (Amaranthus retroflexus); assay: Test A preemergence; conditions: Amaranthus retroflexus, pre-emergence, 240 h, 0 to 100 scale where 0 is no effect and 100 is complete control, read-out: Pigweed plant response rating
[3] = system: ragweed (common ragweed, Ambrosia elatior); assay: Test A preemergence; conditions: Ambrosia artemisiifolia, pre-emergence, 240 h, 0 to 100 scale where 0 is no effect and 100 is complete control, read-out: Ragweed plant response rating
Procedure, shortened: as §1

[4] = system: barnyardgrass (Echinochloa crus-galli); assay: Test A preemergence; conditions: Echinochloa crus-galli, pre-emergence, 240 h, 0 to 100 scale where 0 is no effect and 100 is complete control, read-out: Barnyardgrass plant response rating
Procedure, shortened: as §1

Kochia (Kochia scoparia) [5] = assay: Test A preemergence; conditions: Bassia scoparia, pre-emergence, 240 h, 0 to 100 scale where 0 is no effect and 100 is complete control, read-out: Kochia plant response rating
Procedure, shortened: as §1

[6] = system: giant foxtail (Setaria faberii); assay: Test A preemergence; conditions: Setaria faberi, pre-emergence, 240 h, 0 to 100 scale where 0 is no effect and 100 is complete control, read-out: Foxtail, Giant plant response rating
Procedure, shortened: as §1

corn (Zea mays) = assay: Test A postemergence; conditions: Zea mays, post-emergence, 240 h, Postemergence, read-out: Corn plant response rating (0 to 100 scale)
Procedure, shortened: as §1

[7] = system: ryegrass, Italian (Italian ryegrass, Lolium multiflorum); assay: Test A postemergence; conditions: Lolium multiflorum, post-emergence, 240 h, Postemergence, read-out: Ryegrass, Italian plant response rating (0 to 100 scale)
Procedure, shortened: as §1

[8] = system: pigweed (Amaranthus retroflexus); assay: Test A postemergence; conditions: Amaranthus retroflexus, post-emergence, 240 h, Postemergence, read-out: Pigweed plant response rating (0 to 100 scale)
Procedure, shortened: as §1

[9] = system: ragweed (common ragweed, Ambrosia elatior); assay: Test A postemergence; conditions: Ambrosia artemisiifolia, post-emergence, 240 h, Postemergence, read-out: Ragweed plant response rating (0 to 100 scale)
Procedure, shortened: as §1

[10] = system: blackgrass (Alopecurus myosuroides); assay: Test A postemergence; conditions: Alopecurus myosuroides, post-emergence, 240 h, Postemergence, read-out: Blackgrass plant response rating (0 to 100 scale)
Procedure, shortened: as §1

[11] = system: barnyardgrass (Echinochloa crus-galli); assay: Test A postemergence; conditions: Echinochloa crus-galli, post-emergence, 240 h, Postemergence
Procedure, shortened: as §1

[12] = system: wheat (Triticum aestivum); assay: Test A postemergence; conditions: Triticum aestivum, post-emergence, 240 h, Postemergence, read-out: Wheat plant response rating (0 to 100 scale)
Procedure, shortened: as §1

Kochia (Kochia scoparia) [13] = assay: Test A postemergence; conditions: Bassia scoparia, post-emergence, 240 h, Postemergence, read-out: Kochia plant response rating (0 to 100 scale)
Procedure, shortened: as §1

[14] = system: Galium (catchweed bedstraw, Galium aparine); assay: Test A postemergence; conditions: Galium, post-emergence, 240 h, Postemergence, read-out: Galium plant response rating (0 to 100 scale)
Procedure, shortened: as §1

[15] = system: giant foxtail (Setaria faberii); assay: Test A postemergence; conditions: Setaria faberi, post-emergence, 240 h, Postemergence, read-out: Foxtail, Giant plant response rating (0 to 100 scale)
Procedure, shortened: as §1

[16] = system: sedge, umbrella (small-flower umbrella sedge, Cyperus difformis); assay: Test B flooded paddy test; conditions: Cyperus difformis, 250 g ai/ha, Flood; 0 to 100 scale where 0 is no effect and 100 is complete control; read-out: Sedge, Umbrella plant response rating
Procedure, shortened: (§2)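 Evaluation by eye, against controls, occurred 13–15 d post-treatment in a greenhouse, using a 0 (no effect) to 100 (complete control) scale. Application was into the paddy water, 3 cm deep over the soil, on 2-leaf plants.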

rice (Oryra sativa) = assay: Test B flooded paddy test; conditions: Oryza sativa, 250 g ai/ha, Flood; 0 to 100 scale where 0 is no effect and 100 is complete control; read-out: Rice plant response rating
Procedure, shortened: as §2

[17] = system: ducksalad (Heteranthera limosa); assay: Test B flooded paddy test; conditions: Heteranthera limosa, 250 g ai/ha, Flood; 0 to 100 scale where 0 is no effect and 100 is complete control; read-out: Ducksalad plant response rating
Procedure, shortened: as §2

[18] = system: barnyardgrass (Echinochloa crus-galli); assay: Test B flooded paddy test; conditions: Echinochloa crus-galli, 250 g ai/ha, Flood; 0 to 100 scale where 0 is no effect and 100 is complete control; read-out: Barnyardgrass plant response rating
Procedure, shortened: as §2

[19] = 125 g ai/ha, preemergence, visual injury rating, approximately 10 d
[20] = 125 g ai/ha, visual rating about 10 d after treatment
[21] = 31 g ai/ha, 0 is no effect, 100 is complete control

Cc1c(F)cccc1NC(=O)[C@H]1C(=O)N(C)C[C@@H]1c1ccc2c(c1)C(F)(F)C(F)(F)O2 [Compound 1272]
pest or weed control at 31 g/ha ([1]; 31 g ai/ha, Preemergence): 20%
pest or weed control at 125 g/ha [1, 19]: 60%
pest or weed control at 31 g/ha ([2]; 31 g ai/ha, Preemergence): 0%
pest or weed control at 125 g/ha [2, 19]: 0%
pest or weed control at 31 g/ha ([3]; 31 g ai/ha, Preemergence): 0%
pest or weed control at 125 g/ha [3, 19]: 0%
pest or weed control at 31 g/ha ([4]; 31 g ai/ha, Preemergence): 90%
pest or weed control at 125 g/ha [4, 19]: 90%
pest or weed control at 31 g/ha (Kochia (Kochia scoparia) [5]; 31 g ai/ha, Preemergence): 0%
pest or weed control at 125 g/ha (Kochia (Kochia scoparia) [5]; [19]): 20%
pest or weed control at 31 g/ha ([6]; 31 g ai/ha, Preemergence): 90%
pest or weed control at 125 g/ha [6, 19]: 90%
plant injury at 125 g/ha (corn (Zea mays); [20]): 50%
plant injury at 31 g/ha (corn (Zea mays); [21]): 0%
pest or weed control at 125 g/ha [7, 20]: 30%
pest or weed control at 31 g/ha [7, 21]: 20%
pest or weed control at 125 g/ha [8, 20]: 0%
pest or weed control at 31 g/ha [8, 21]: 0%
pest or weed control at 125 g/ha [9, 20]: 0%
pest or weed control at 31 g/ha [9, 21]: 0%
pest or weed control at 125 g/ha [10, 20]: 40%
pest or weed control at 31 g/ha [10, 21]: 20%
pest or weed control at 125 g/ha ([11]; 125 g ai/ha, visual rating about 10 d after treatment, read-out: Barnyardgrass plant response rating (0 to 100 scale, 0 no effect, 100 complete control)): 70%
pest or weed control at 31 g/ha ([11]; 31 g ai/ha, 0 is no effect, 100 is complete control, read-out: Barnyardgrass plant response rating (0 to 100 scale)): 40%
plant injury at 125 g/ha [12, 20]: 50%
plant injury at 31 g/ha [12, 21]: 20%
pest or weed control at 125 g/ha (Kochia (Kochia scoparia) [13]; [20]): 20%
pest or weed control at 31 g/ha (Kochia (Kochia scoparia) [13]; [21]): 0%
pest or weed control at 125 g/ha [14, 20]: 60%
pest or weed control at 31 g/ha [14, 21]: 50%
pest or weed control at 125 g/ha [15, 20]: 80%
pest or weed control at 31 g/ha [15, 21]: 50%
pest or weed control at 250 g/ha [16]: 0%
pest or weed control at 250 g/ha (rice (Oryra sativa)): 20%
pest or weed control at 250 g/ha [17]: 80%
pest or weed control at 250 g/ha [18]: 50%
